Where only a bound is given, the exact number is not on record here.

This assay deals with monocistronic NK5.1 HCV replicon in Huh7 cells. Description: HCV replicon assay, monocistronic replicon cell line. The format is cell-based, hepatitis C virus. As to conditions: Hepatitis C virus, Huh-7; monocistronic NK5.1 HCV replicon in Huh7 cells; median value; read-out: Mono EC50 Median. In short, it runs like this: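 Huh7 cells carrying the monocistronic NK5.1 replicon, seeded 24 h before dosing, were exposed to six-point half-log compound series (0.6% DMSO) for 3 days at 37 °C. Replicon RNA was quantified by TaqMan RT-PCR, normalised to GAPDH and compared with DMSO controls to derive EC50.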
In general terms: A replicon is a self-replicating genome or part of one, used to study replication in cells.

Turning to `Oc1ccccc1-c1nc(-c2ccccn2)n[nH]1` [Compound 361, 2-(5-pyridin-2-yl-2H-[1,2,4]triazol-3-yl)-phenol], the EC50 (usually the concentration at which the effect is half-maximal) is greater than 19 µM.

Consider `COc1cccc(-c2nc(-c3ccccn3)n[nH]2)c1O` [Compound 362, 6-Methoxy-2-(5-pyridin-2-yl-2H-[1,2,4]triazol-3-yl)-phenol], for which the EC50 is greater than 19 µM. Consider `COc1ccc(-c2nc(-c3ccccn3)n[nH]2)c(O)c1` [Compound 363, 5-Methoxy-2-(5-pyridin-2-yl-2H-[1,2,4]triazol-3-yl)-phenol], for which the 50% effective concentration (EC50) is greater than 19 µM. To `O=[N+]([O-])c1cccc(-c2nc(-c3ccccn3)n[nH]2)c1` [Compound 364, 2-[5-(3-Nitro-phenyl)-1H-[1,2,4]triazol-3-yl]-pyridine] belongs greater than 32 µM; to `CCN(CC)c1ccc(-c2nc(-c3ccccn3)n[nH]2)c(O)c1` [Compound 365, 5-Diethylamino-2-(5-pyridin-2-yl-2H-[1,2,4]triazol-3-yl)-phenol], greater than 32 µM; to `c1ccc2c(-c3nc(-c4nccc5ccccc45)n[nH]3)cccc2c1` [Compound 366, 1-(5-Naphthalen-1-yl-1H-[1,2,4]triazol-3-yl)-isoquinoline], greater than 32 µM. Take `CC(C)(C)c1ccc(O)c(-c2nc(-c3nccc4ccccc34)n[nH]2)c1` [Compound 367, 4-tert-Butyl-2-(5-isoquinolin-1-yl-2H-[1,2,4]triazol-3-yl)-phenol]: the EC50 was greater than 32 µM. On to `O=[N+]([O-])c1ccc(O)c(-c2nc(-c3nccc4ccccc34)n[nH]2)c1` [Compound 368, 4-Nitro-2-(5-isoquinolin-1-yl-2H-[1,2,4]triazol-3-yl)-phenol], for which the EC50 was greater than 32 µM. To `Oc1ccc(F)cc1-c1nc(-c2nccc3ccccc23)n[nH]1` [Compound 369, 4-Fluoro-2-(5-isoquinolin-1-yl-2H-[1,2,4]triazol-3-yl)-phenol] belongs 3.5 µM; to `COc1ccc(O)c(-c2nc(-c3nccc4ccccc34)n[nH]2)c1` [Compound 370, 4-Methoxy-2-(5-isoquinolin-1-yl-2H-[1,2,4]triazol-3-yl)-phenol], 2.9 µM; to `Oc1ccc(Cl)cc1-c1nc(-c2nccc3ccccc23)n[nH]1` [Compound 371, 4-Chloro-2-(5-isoquinolin-1-yl-2H-[1,2,4]triazol-3-yl)-phenol], greater than 19 µM. The figure for `CCOc1cccc(-c2nc(-c3nccc4ccccc34)n[nH]2)c1O` [Compound 372, 6-Ethoxy-2-(5-isoquinolin-1-yl-2H-[1,2,4]triazol-3-yl)-phenol] is greater than 19 µM; for `Oc1cc(OCc2ccccc2)ccc1-c1nc(-c2nccc3ccccc23)n[nH]1` [Compound 373, 5-Benzyloxy-2-(5-isoquinolin-1-yl-2H-[1,2,4]triazol-3-yl)-phenol] it is greater than 19 µM; for `Oc1ccc(Br)cc1-c1nc(-c2nccc3ccccc23)n[nH]1` [Compound 374, 4-Bromo-2-(5-isoquinolin-1-yl-2H-[1,2,4]triazol-3-yl)-phenol] it is greater than 19 µM. `Cc1ccc(O)c(-c2nc(-c3nccc4ccccc34)n[nH]2)c1` [Compound 375, 4-Methyl-2-(5-isoquinolin-1-yl-2H-[1,2,4]triazol-3-yl)-phenol]: the EC50 was greater than 19 µM.

Consider `COc1ccc(-c2nc(-c3nccc4ccccc34)n[nH]2)c(O)c1` [Compound 376, 5-Methoxy-2-(5-isoquinolin-1-yl-2H-[1,2,4]triazol-3-yl)-phenol], for which the EC50 is greater than 19 µM. Turning to `Oc1ccccc1-c1nc(-c2nccc3ccccc23)n[nH]1` [Compound 377, 2-(5-isoquinolin-1-yl-2H-[1,2,4]triazol-3-yl)-phenol], the EC50 was greater than 19 µM. The figure for `COc1cccc(-c2nc(-c3nccc4ccccc34)n[nH]2)c1O` [Compound 378, 6-Methoxy-2-(5-isoquinolin-1-yl-2H-[1,2,4]triazol-3-yl)-phenol] is 16 µM. Turning to `O=[N+]([O-])c1cccc(-c2nc(-c3nccc4ccccc34)n[nH]2)c1` [Compound 379], the EC50 is greater than 19 µM.

With `COc1ccc(OC)c(-c2nc(-c3nccc4ccccc34)n[nH]2)c1` [Compound 380], the EC50 was greater than 19 µM. The figure for `Oc1ccc(O)c(-c2nc(-c3nccc4ccccc34)n[nH]2)c1` [Compound 381, 4-Hydroxy-2-(5-isoquinolin-1-yl-2H-[1,2,4]triazol-3-yl)-phenol] is 8.5 µM. For the compound `COc1cccc(-c2nc(-c3nccc4ccccc34)n[nH]2)c1` [Compound 382], the EC50 was greater than 19 µM. The figure for `COc1ccc(F)c(-c2nc(-c3nccc4ccccc34)n[nH]2)c1` [Compound 383] is greater than 19 µM. Regarding `Oc1ccc2ccccc2c1-c1nc(-c2nccc3ccccc23)n[nH]1` [Compound 385, 1-(5-isoquinolin-1-yl-2H-[1,2,4]triazol-3-yl)-naphthalen-2-ol], the concentration giving a half-maximal response (EC50) is greater than 19 µM. As for `Oc1ccc(O)c(-c2nc(-c3ccccn3)n[nH]2)c1` [Compound 386, 4-Hydroxy-2-(5-pyridin-2-yl-2H-[1,2,4]triazol-3-yl)-phenol], the EC50 is greater than 19 µM. To `COc1cccc(-c2nc(-c3ccccn3)n[nH]2)c1` [Compound 387, 2-[5-(3-Methoxy-phenyl)-1H-[1,2,4]triazol-3-yl]-pyridine] belongs greater than 19 µM. The figure for `COc1ccc(F)c(-c2nc(-c3ccccn3)n[nH]2)c1` [Compound 388, 2-[5-(2-Fluoro-5-methoxy-phenyl)-1H-[1,2,4]triazol-3-yl]-pyridine] is greater than 19 µM; for `CC(C)c1ccc(-c2nc(-c3ccccn3)n[nH]2)cc1` [Compound 389, 2-[5-(4-Isopropyl-phenyl)-1H-[1,2,4]triazol-3-yl]-pyridine] it is greater than 19 µM.

As to `Cc1cccc(-c2n[nH]c(-c3cccc4ccccc34)n2)n1` [Compound 390, 2-Methyl-6-(5-naphthalen-1-yl-1H-[1,2,4]triazol-3-yl)-pyridine], the EC50 is greater than 19 µM. The figure for `Cc1cccc(-c2n[nH]c(-c3cc(C(C)(C)C)ccc3O)n2)n1` [Compound 391, 4-tert-Butyl-2-[5-(6-methyl-pyridin-2-yl)-2H-[1,2,4]triazol-3-yl]-phenol] is greater than 19 µM. For `Cc1cccc(-c2n[nH]c(-c3cc([N+](=O)[O-])ccc3O)n2)n1` [Compound 392, 4-Nitro-2-(5-(6-methyl-pyridin-2-yl)-2H-[1,2,4]triazol-3-yl)-phenol], the EC50 is greater than 19 µM.

In the case of `Cc1cccc(-c2n[nH]c(-c3cc(F)ccc3O)n2)n1` [Compound 393, 4-Fluoro-2-(5-(6-methyl-pyridin-2-yl)-2H-[1,2,4]triazol-3-yl)-phenol], the EC50 is greater than 19 µM. Regarding `COc1ccc(O)c(-c2nc(-c3cccc(C)n3)n[nH]2)c1` [Compound 394, 4-Methoxy-2-(5-(6-methyl-pyridin-2-yl)-2H-[1,2,4]triazol-3-yl)-phenol], the EC50 was greater than 19 µM.

As for `Cc1cccc(-c2n[nH]c(-c3cc(Cl)ccc3O)n2)n1` [Compound 395, 4-Chloro-2-(5-(6-methyl-pyridin-2-yl)-2H-[1,2,4]triazol-3-yl)-phenol], the EC50 is greater than 19 µM. To `CCOc1cccc(-c2nc(-c3cccc(C)n3)n[nH]2)c1O` [Compound 396, 6-Ethoxy-2-(5-(6-methyl-pyridin-2-yl)-2H-[1,2,4]triazol-3-yl)-phenol] belongs greater than 19 µM.

As to `Cc1cccc(-c2n[nH]c(-c3ccc(OCc4ccccc4)cc3O)n2)n1` [Compound 397, 5-Benzyloxy-2-(5-(6-methyl-pyridin-2-yl)-2H-[1,2,4]triazol-3-yl)-phenol], the EC50 was greater than 19 µM. For the compound `Cc1cccc(-c2n[nH]c(-c3ccc(-c4ccccc4)c(F)c3)n2)n1` [Compound 398, 2-[5-(2-Fluoro-biphenyl-4-yl)-1H-[1,2,4]triazol-3-yl]-6-methyl-pyridine], the EC50 was greater than 19 µM. To `Cc1cccc(-c2n[nH]c(-c3cc(Br)ccc3O)n2)n1` [Compound 399, 4-Bromo-2-(5-(6-methyl-pyridin-2-yl)-2H-[1,2,4]triazol-3-yl)-phenol] belongs greater than 19 µM; to `Cc1ccc(O)c(-c2nc(-c3cccc(C)n3)n[nH]2)c1` [Compound 400, 4-Methyl-2-(5-(6-methyl-pyridin-2-yl)-2H-[1,2,4]triazol-3-yl)-phenol], greater than 19 µM. To `COc1ccc(-c2nc(-c3cccc(C)n3)n[nH]2)c(O)c1` [Compound 401, 5-Methoxy-2-(5-(6-methyl-pyridin-2-yl)-2H-[1,2,4]triazol-3-yl)-phenol] belongs greater than 19 µM; to `Cc1cccc(-c2n[nH]c(-c3ccccc3O)n2)n1` [Compound 402, 2-(5-(6-methyl-pyridin-2-yl)-2H-[1,2,4]triazol-3-yl)-phenol], greater than 19 µM. As for `COc1cccc(-c2nc(-c3cccc(C)n3)n[nH]2)c1O` [Compound 403, 6-Methoxy-2-(5-(6-methyl-pyridin-2-yl)-2H-[1,2,4]triazol-3-yl)-phenol], the EC50 was greater than 19 µM. As for `Cc1cccc(-c2n[nH]c(-c3cccc([N+](=O)[O-])c3)n2)n1` [Compound 404, 6-Methyl-2-[5-(3-nitro-phenyl)-1H-[1,2,4]triazol-3-yl]-pyridine], the EC50 is greater than 19 µM.

As for `COc1cccc(-c2nc(-c3cccc(C)n3)n[nH]2)c1` [Compound 405, 2-[5-(3-Methoxy-phenyl)-1H-[1,2,4]triazol-3-yl]-6-methyl-pyridine], the EC50 is greater than 19 µM. As for `COc1ccc(F)c(-c2nc(-c3cccc(C)n3)n[nH]2)c1` [Compound 406, 2-[5-(2-Fluoro-5-methoxy-phenyl)-1H-[1,2,4]triazol-3-yl]-6-methyl-pyridine], the EC50 is greater than 19 µM.

`COc1ccc([N+](=O)[O-])cc1-c1nc(-c2cccc(C)n2)n[nH]1` [Compound 407, 2-[5-(2-Methoxy-5-nitro-phenyl)-1H-[1,2,4]triazol-3-yl]-6-methyl-pyridine]: the EC50 was greater than 19 µM. With `Cc1cccc(-c2n[nH]c(-c3ccc(C(C)C)cc3)n2)n1` [Compound 408, 2-[5-(4-Isopropyl-phenyl)-1H-[1,2,4]triazol-3-yl]-6-methyl-pyridine], the EC50 was greater than 19 µM.
